Reference: patent US10398713B2, “Compositions and methods for the treatment of neurodegenerative and other diseases” (Glialogix, Inc., priority 2013, dated 2019)

Key:
SOD1 mouse model = conditions: cited from earlier work
[1] = for Cmax GB: 4.5 mg, pH 2; for AUC / Cmax IB: pH 5.5
in vivo = conditions: male, Sprague-Dawley, rat, 400 mg/kg
Description: Rats were allowed to eat ad libitum before testing. […] Following drug administration, 200 μl of plasma was collected from each animal at the following time points: 30, 60, 90, 120, 160 and 240 minutes. Plasma samples were snap frozen in liquid N2 and stored at −80° C. until analysis.

[2] = label / literature; cited from earlier work
[3] = SOD1 mouse model, published results (Shin et al. 2012; Lincecum et al. 2010)

CC(C)Cc1ccc(C(C)C(=O)O)cc1 (stereo not shown) [ibuprofen]
decreased lifespan after onset of neurological disease (SOD1 mouse model; [3]): 10%

O=C(O)c1cc(N=Nc2ccc(S(=O)(=O)Nc3ccccn3)cc2)ccc1O [Crystalline sulfasalazine, sulfasalazine]
Cmax GB [1]: 15 µg/mL
AUC [1]: 22,200 min * ug/mL
Cmax IB [1]: 282 µg/mL
concentration at 0.5 h (in vivo): 1.49 µg/mL
concentration at 1 h (in vivo): 1.14 µg/mL
concentration at 1.5 h (in vivo): 1.43 µg/mL
concentration at 2 h (in vivo): 1.26 µg/mL
concentration at 3 h (in vivo): 1.03 µg/mL
concentration at 4 h (in vivo): 0.85 µg/mL

Nc1ccc(S(=O)(=O)Nc2ccccn2)cc1 [Sulfapyridine, sulfapyridine]
bioavailability (share reaching the circulation following oral dosing) [2]: > 70%

O=C(O)c1cc(N=Nc2ccc(S(=O)(=O)Nc3ccccn3)cc2)ccc1O [Amorphous sulfasalazine, sulfasalazine]
Cmax GB [1]: 154 µg/mL
AUC [1]: 30,300 min * ug/mL
Cmax IB [1]: 372 µg/mL

Nc1nc2ccc(OC(F)(F)F)cc2s1 [riluzole]
increased absolute lifespan (SOD1 mouse model; SOD1 model, Lincecum et al. 2010): 1.6%
increased lifespan after onset of neurological disease (SOD1 mouse model; [3]): 1%
